Laboratory results: PubChem BioAssay AID2206 (Vanderbilt High Throughput Screening Facility, 2009)
Calls of active or inactive are those of the source.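 How the source made its calls: active means average EC50 below 10 µM; inactive means average EC50 of 10 µM or more.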

Molecular target: Muscarinic acetylcholine receptor M1 (Rattus norvegicus) (UniProt P08482)
Test: rat M1 positive allosteric modulators, SAR follow-up, selectivity assay for M5 allosteric modulator project, cell-based (AID 2206)
Conditions: CHO-K1 rat M1, Fluo-4 calcium, ACh EC20 potentiation

Muscarinic acetylcholine receptor M1 (Rattus norvegicus), sequence (P08482 whole entry, looked up): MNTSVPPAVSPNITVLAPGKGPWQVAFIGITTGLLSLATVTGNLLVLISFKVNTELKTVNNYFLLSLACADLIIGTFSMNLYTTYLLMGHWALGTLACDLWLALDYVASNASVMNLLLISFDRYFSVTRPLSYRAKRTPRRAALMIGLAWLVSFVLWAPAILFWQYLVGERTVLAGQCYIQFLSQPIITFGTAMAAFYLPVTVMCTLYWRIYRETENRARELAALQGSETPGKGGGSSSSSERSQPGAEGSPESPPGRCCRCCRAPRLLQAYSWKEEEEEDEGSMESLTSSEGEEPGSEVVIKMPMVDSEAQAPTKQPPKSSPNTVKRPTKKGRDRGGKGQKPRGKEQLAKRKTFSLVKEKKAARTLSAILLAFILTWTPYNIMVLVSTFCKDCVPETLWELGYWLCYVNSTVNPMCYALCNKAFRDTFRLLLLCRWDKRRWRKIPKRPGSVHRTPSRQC

| EC50 | SMILES |
| --- | --- |
| > 30 µM (inactive) | COc1ccc(CN2C(=O)C(=O)c3cc(OC(F)(F)F)ccc32)cc1 |
| 6.21 µM | O=C1C(=O)N(Cc2ccccc2C(F)(F)F)c2ccc(F)cc21 |
| > 30 µM (inactive) | COc1cccc(CN2C(=O)C(=O)c3cc(OC(F)(F)F)ccc32)c1 |
| > 30 µM (inactive) | O=C1C(=O)N(Cc2ccccc2Cl)c2ccc(OC(F)(F)F)cc21 |
| 5.18 µM | O=C1C(=O)N(Cc2ccc(C(F)(F)F)cc2)c2c(F)cccc21 |
| > 30 µM (inactive) | O=C1C(=O)N(Cc2ccc(OC(F)(F)F)cc2)c2ccc(OC(F)(F)F)cc21 |
| 7.09 µM | O=C1C(=O)N(Cc2ccc(C(F)(F)F)cc2)c2ccc(OC(F)(F)F)cc21 |
| 5.41 µM | O=C1C(=O)N(Cc2ccc(C(F)(F)F)cc2)c2ccc(Cl)cc21 |

Continued, molecule first:

| SMILES | EC50 |
| --- | --- |
| COc1cccc(CN2C(=O)C(=O)c3c(Cl)ccc(Cl)c32)c1 | > 30 µM (inactive) |
| COc1ccc(CN2C(=O)C(=O)c3cccc(Cl)c32)cc1 | 5.38 µM |
| O=C1C(=O)N(Cc2ccc(Br)cc2)c2c(F)cccc21 | 3.99 µM |
| O=C1C(=O)N(Cc2ccc(Br)cc2F)c2ccc(OC(F)(F)F)cc21 | > 10 µM (inactive) |
| O=C1C(=O)N(Cc2ccccc2C(F)(F)F)c2c(F)cccc21 | > 30 µM (inactive) |
| COc1ccc(CN2C(=O)C(=O)c3ccccc32)cc1 | inactive |
| Cc1ccccc1CN1C(=O)C(=O)c2cc(OC(F)(F)F)ccc21 | > 10 µM (inactive) |
